Results reported in patent US11213522B2, “Autoimmune-induced glutamatergic receptor dysfunction methods and treatments” (SARAH HERZOG MEMORIAL HOSPITAL EZRAT NASHIM ASSOCIATION, priority 2013, dated 2022).

How the values were obtained:
Assay type in all cases: in vivo, human
[1] = tested on: patient positive for anti-NR1 NMDAR antibodies; test: Neurocognitive assessment battery (overall)
Experimental: (§1) The trial consisted of two periods, starting with a 2 week lead-in/stabilization period (−2-0) following which the patient was entered in the second period of the study which consisted of a 6 week (0-6), open-label, fixed dose therapy phase. During this phase, the patient received adjuvant treatment with DSR, whose dose was increased from 1500 mg/day (week 1) to 2000 mg/day (weeks 2 and 3) to 3000 mg/day (weeks 4 and 5) and to 4000 mg/day (week 6). The doses of the ongoing medication received by the patient remained fixed throughout the study and no changes in medication were performed.
In addition, cognitive performance was assessed pre- and post DSR treatment. For this purpose, a 1.5-hour neurocognitive assessment battery (nine computerized and two paper/pencil tests) was employed that measures accuracy and speed of performance in major cognition domains, including attention/vigilance, planning, short-term and working memory, decision making, abstraction and mental flexibility. All the tests were formatted like games and puzzles, and were administered to the patient as part of the comprehensive neuropsychiatric assessment at baseline and the end of study. […]

[2] = tested on: patient positive for anti-NR1 NMDAR antibodies; test: Test of Attentional Vigilance (TOAV); settings: post-6 weeks D-serine
Experimental: as §1
(§2) In addition, cognitive performance was assessed pre- and post DSR treatment. For this purpose, a 1.5-hour neurocognitive assessment battery (nine computerized and two paper/pencil tests) was employed that measures accuracy and speed of performance in major cognition domains, including attention/vigilance, planning, short-term and working memory, decision making, abstraction and mental flexibility. All the tests were formatted like games and puzzles, and were administered to the patient as part of the comprehensive neuropsychiatric assessment at baseline and the end of study. The neurocognitive battery included the 1) Test of Attentional Vigilance (TOAV, (Forbes, 1998, Journal of Clinical Psychology 54:461-476; Greenberg, 1993, Journal of Child Psychology and Psychiatry 34: 1019-30)); 2) Tower of London (TOL, (Shailice, 1982, Specific impairments of planning Philosophical Transactions of the Royal Society of London. Series B, Biological Sciences 298:199-209); 3-4) Digit Span Test (DST, forward and backward (Wechsler 1997, The Wechsler adult intelligence scale-III. San Antonio, Tex.: Psychological Corporation; Kaplan 1991, The WAIS-R as a neuropsychological instrument. San Antonio, Tex.: The Psychological Corporation; Lamar et al., 2007, Neuropsychologia 45:245-54; Lamar et al., 2008, Neuropsychologia 46:2597-601)); 5-6) Corsi Block Tapping Test (CBTT, forward and backward, (Corsi, 1972, Dissertation Abstracts International. […]

[3] = tested on: patient positive for anti-NR1 NMDAR antibodies; test: Wisconsin Card Sort Test (WCST); settings: post-6 weeks D-serine; pre-treatment subject unable to complete task
Experimental: as §1
as §2, with “International. 34:819B; Kessels et al., 2000, Applied Neuropsychology 7:252-58, Kessels et al., 2008, Assessment 15:426-34)); 7) Flanker Task (Erikson and Eriksen, 1974; Perception & Psychophysics 25: 249-63, Stins et. al., 2007, Advances in Cognitive Psychology 3:389-96); 8) Time Wall (Perez et al., 1987, Unified Tri-services cognitive performance assessment battery: review and methodology; DTIC Document ADA181697, http://www.dtic.mil/dtic/tr/fulltext/u2/a81697.pdf); and Wisconsin Card Sort Test (WCST, (Berg, 1948, J Gen Psychol39:15-22; Nelson, 1976, Cortex 12:313-24)).” for “International.”

[4] = tested on: patient positive for anti-NR1 NMDAR antibodies; test: Corsi Block Tapping Test (CBTT), forward and backward; settings: post-6 weeks D-serine
Experimental: as §1
as §2, with “International. 34:819B; Kessels et al., 2000, Applied Neuropsychology 7:252-58, Kessels et al., 2008, Assessment 15:426-34)); 7) Flanker Task (Erikson and Eriksen, 1974; Perception & Psychophysics 25: 249-63, Stins et. al., 2007, Advances in Cognitive Psychology 3:389-96); 8) Time Wall (Perez et al., 1987, Unified Tri-services cognitive performance assessment battery: review and methodology; DTIC Document ADA181697, http://www.dtic.mil/dtic/tr/fulltext/u2/a81697.pdf); and Wisconsin Card Sort Test (WCST, (Berg, 1948, J Gen Psychol39:15-22; Nelson, 1976, Cortex 12:313-24)).” for “International.”

[5] = tested on: patient positive for anti-NR1 NMDAR antibodies; test: Electroencephalogram (EEG) pre- and post-DSR administration
Experimental: as §1
The patient underwent prior to entering the study and at study weeks 3 and 6 a medical work-up including complete medical history, and routine clinical blood work, including blood count+differential, lipids, and glucose levels, kidney, thyroid, and liver function parameters, urinalysis, and blood pressure measurements. Abdominal ultrasound was performed prior to study entry and electroencephalogram (EEG) and brain magnetic resonance imaging (MR1) were obtained pre- and post-DSR administration.

Compound: N[C@H](CO)C(=O)O [D-serine]
- Completion of DST, TMT and WCST tasks ([1]; post-DSR treatment, not comprehended/performed at baseline): successfully completed
- Effect upon cognitive performance (test battery) ([1]; post-DSR vs baseline, improvements in working memory, abstraction and mental flexibility): favorable effect
- TOAV Commission errors ([2]; pre-treatment 1): 0
- TOAV Omission errors ([2]; pre-treatment 1): 2
- TOAV Response time, mean ± SD ([2]; pre-treatment 562 ± 103): 523 ± 93 milliseconds
- WCST Category Score [3]: 5
- WCST Total correct score % [3]: 81.25%
- WCST Total error score % [3]: 18.75%
- WCST Trials to complete 1st category [3]: 12
- CBTT Backward Span Length (2-9) ([4]; pre-treatment 4): 3.5
- CBTT Forward Span Length (2-9) ([4]; pre-treatment 5): 4
- CBTT Backward Number Correct (0-16) ([4]; pre-treatment 6): 5
- CBTT Forward Number Correct (0-16) ([4]; pre-treatment 8): 6
- Current latency of EDB over the right frontal area ([5]; following DSR treatment, t=2.686, df=113, p=0.0083, F8 channel): significant reduction
- EEG extreme delta brush (EDB) pattern ([5]; post- vs pre-DSR administration (six weeks)): attenuation of the EDB pattern
- EEG coherence between electrodes ([5]; post- vs pre-six weeks of D-serine, across all frequency bands): Distinct new patterns of EEG coherence
